Counter-ions that a name gives are not always drawn.
Columns and labels:
Format in all cases: biochemical
[1] = molecular target: T1, steroid sulfatase (STS) (Homo sapiens, UniProt P08842); experiment: 3H-DHEA scintillation counting; settings: labelled compound; 5 µM DHEAS, pH 7.4, 37 °C
T1 sequence (P08842 22-583): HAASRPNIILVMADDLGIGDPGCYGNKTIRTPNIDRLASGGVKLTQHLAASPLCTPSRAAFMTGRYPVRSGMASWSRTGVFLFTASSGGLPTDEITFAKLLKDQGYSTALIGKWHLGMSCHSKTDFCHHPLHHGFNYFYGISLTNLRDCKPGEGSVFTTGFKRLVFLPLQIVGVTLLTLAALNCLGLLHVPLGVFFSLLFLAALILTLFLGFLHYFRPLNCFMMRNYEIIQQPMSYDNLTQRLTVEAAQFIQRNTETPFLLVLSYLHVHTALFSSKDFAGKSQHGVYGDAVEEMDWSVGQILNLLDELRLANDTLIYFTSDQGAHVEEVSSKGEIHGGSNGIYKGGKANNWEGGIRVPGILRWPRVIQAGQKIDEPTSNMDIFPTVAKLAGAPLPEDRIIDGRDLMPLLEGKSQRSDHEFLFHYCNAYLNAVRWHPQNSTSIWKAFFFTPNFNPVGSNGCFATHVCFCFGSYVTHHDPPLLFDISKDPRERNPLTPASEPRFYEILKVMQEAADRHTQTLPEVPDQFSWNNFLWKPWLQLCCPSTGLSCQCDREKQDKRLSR

[2] = molecular target: PARS (Pseudomonas aeruginosa, UniProt P51691); experiment: colorimetric assay, […] nm; settings: 8 mM pNCS, pH 8.5, room temperature
Chain of PARS (P51691 2-536): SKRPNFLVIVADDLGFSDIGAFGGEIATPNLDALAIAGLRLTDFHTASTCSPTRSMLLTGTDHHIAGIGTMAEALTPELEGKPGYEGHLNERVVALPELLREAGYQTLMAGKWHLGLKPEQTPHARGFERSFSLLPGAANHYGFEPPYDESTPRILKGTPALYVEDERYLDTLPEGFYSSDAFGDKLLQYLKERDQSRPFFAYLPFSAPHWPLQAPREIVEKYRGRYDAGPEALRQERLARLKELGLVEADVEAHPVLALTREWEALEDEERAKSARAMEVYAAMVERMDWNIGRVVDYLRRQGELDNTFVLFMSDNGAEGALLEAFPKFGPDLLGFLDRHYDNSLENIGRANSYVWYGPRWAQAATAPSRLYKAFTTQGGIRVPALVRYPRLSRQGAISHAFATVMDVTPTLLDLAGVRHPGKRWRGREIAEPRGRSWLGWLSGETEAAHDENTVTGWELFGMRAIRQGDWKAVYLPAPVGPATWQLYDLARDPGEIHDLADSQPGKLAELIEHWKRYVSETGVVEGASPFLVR

[3] = molecular target: T2, aryl sulfatase G (ARSG) (Homo sapiens, UniProt Q96EG1); experiment: colorimetric assay, […] nm; settings: 8 mM pNCS, 0.5 M NaOAc, pH 5.6, 37 °C
T2 sequence (Q96EG1 17-525): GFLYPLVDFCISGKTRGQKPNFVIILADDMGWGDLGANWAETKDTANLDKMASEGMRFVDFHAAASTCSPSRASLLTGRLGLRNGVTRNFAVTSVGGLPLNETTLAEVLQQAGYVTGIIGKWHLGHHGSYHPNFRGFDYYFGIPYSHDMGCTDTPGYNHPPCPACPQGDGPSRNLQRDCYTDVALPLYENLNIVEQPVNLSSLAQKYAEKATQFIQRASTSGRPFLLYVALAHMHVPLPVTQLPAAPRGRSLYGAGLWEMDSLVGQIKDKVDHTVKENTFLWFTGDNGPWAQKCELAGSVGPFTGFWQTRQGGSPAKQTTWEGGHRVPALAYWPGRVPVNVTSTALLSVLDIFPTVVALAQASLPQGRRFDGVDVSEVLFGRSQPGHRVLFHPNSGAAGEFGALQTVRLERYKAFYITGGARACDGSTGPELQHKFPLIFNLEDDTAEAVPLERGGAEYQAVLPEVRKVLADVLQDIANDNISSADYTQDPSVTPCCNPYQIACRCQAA

[4] = molecular target: T3, KARS (Klebsiella pneumoniae, UniProt Q9X759); experiment: colorimetric assay, […] nm; settings: 8 mM pNCS, pH 7.5, room temperature
T3 sequence (Q9X759 21-577): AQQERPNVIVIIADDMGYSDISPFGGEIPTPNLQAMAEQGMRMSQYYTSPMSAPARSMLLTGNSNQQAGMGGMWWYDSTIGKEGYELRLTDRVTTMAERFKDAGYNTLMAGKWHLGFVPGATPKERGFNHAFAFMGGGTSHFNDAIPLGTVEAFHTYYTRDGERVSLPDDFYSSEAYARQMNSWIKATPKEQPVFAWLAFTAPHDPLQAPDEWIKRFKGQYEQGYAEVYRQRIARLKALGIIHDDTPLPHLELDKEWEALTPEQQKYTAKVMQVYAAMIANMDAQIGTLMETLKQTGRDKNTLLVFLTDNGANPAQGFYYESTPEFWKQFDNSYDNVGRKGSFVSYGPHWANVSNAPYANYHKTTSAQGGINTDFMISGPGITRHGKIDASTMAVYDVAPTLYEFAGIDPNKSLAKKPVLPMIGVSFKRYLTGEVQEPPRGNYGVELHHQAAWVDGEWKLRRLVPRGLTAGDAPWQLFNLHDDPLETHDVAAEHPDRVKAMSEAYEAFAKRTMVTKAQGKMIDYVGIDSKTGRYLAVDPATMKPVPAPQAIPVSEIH

| SMILES | 3H-DHEA scintillation counting [1] | colorimetric assay, 515 nm [2] | colorimetric assay, 515 nm [3] | colorimetric assay, 515 nm [4] |
| --- | --- | --- | --- | --- |
| C[C@]12CC[C@H](OS(=O)(=O)O)CC1=CC[C@@H]1[C@@H]2CC[C@]2(C)C(=O)CC[C@@H]12 [dehydroepiandrosterone-3-sulfate] | STS activity was determined using a radioactive dehydroepiandrosterone-3-sulfate (^3DHEAS) assay |  |  |  |
| O=[N+]([O-])c1ccc(O)c(OS(=O)(=O)O)c1 [para-nitrocatechol sulfate] |  | KARS, PARS and ARSG activities were monitored using a para-nitrocatechol sulfate (pNCS) colorimetric assay | KARS, PARS and ARSG activities were monitored using a para-nitrocatechol sulfate (pNCS) colorimetric assay | KARS, PARS and ARSG activities were monitored using a para-nitrocatechol sulfate (pNCS) colorimetric assay |

Reference: paper PMC3396293 (Bioorganic & medicinal chemistry, 2011)
